Test results published in patent US12486239B2, “Benzotriazole compound, light absorber, and resin composition” (MITSUI CHEMICALS, INC., priority 2019, dated 2025).

What was measured:
Type in all cases: physicochemical
[1] = Heat resistance: TG5% decomposition temperature; conditions: Table 6; nitrogen atmosphere, heating rate 10° C./min
Procedure: In each Example and Comparative Example, the decomposition temperature was measured by the following method.
Using a thermal analyzer Rigaku ThermoPlus Evo TG8120, the TG5% decomposition temperature (T-5% by mass) was measured under a nitrogen atmosphere at a heating rate of 10° C./min and a temperature range of from room temperature to 500° C.
The higher the T-5% by mass, the higher the heat resistance.
The decomposition temperature of the benzotriazole compound obtained in each Example and Comparative Example was measured by the following method.

[2] = Maximum absorption wavelength and gram absorption coefficient, toluene solution 0.002 g/L (second embodiment); conditions: optical path length 10 mm
Procedure: The maximum absorption wavelength of the benzotriazole compound of the second embodiment is measured using a spectrophotometer (for example, Shimadzu Spectrophotometer UV-1600 manufactured by Shimadzu Corporation) at optical path length of 10 mm using a toluene solution having a concentration of 0.002 g/L.
In Examples according to the second embodiment, the maximum absorption wavelength and the gram absorption coefficient of the benzotriazole compound were measured using a Shimadzu Spectrophotometer UV-1600 manufactured by Shimadzu Corporation at an optical path length of 10 mm using a toluene solution having a concentration of 0.002 g/L.

[3] = Solubility to various organic solvents; conditions: Table 6, room temperature; for Solubility: EA: ethyl acetate; for Solubility: MEK: methyl ethyl ketone; for Solubility: MMA: methyl methacrylate
Procedure: As Comparative Example 1, the solubility of TINUVIN326 (manufactured by BASF Japan Ltd.) represented by the following Formula (TI) was measured by the following method.
(§1) To 0.5 g of the benzotriazole compound, the various organic solvents shown in Table 1 were added such that the total mass was about 10 g, the mixture was irradiated with ultrasonic waves for about 30 minutes, and thereafter stirred at room temperature for 2 hours to prepare a dispersion of about 10% by mass.
The dispersion was filtered through a membrane filter (0.2 μm), and the obtained residue was dried in a dryer at 60° C. for 1 hour, and then the mass of the residue was measured.
The solubility of the benzotriazole compound to the solvent was expressed by the following formula. Solubility (% by mass)=(W0−W1)/W0
W0 is the mass of the benzotriazole compound before the treatment, and W1 is the mass of the residue after drying (that is, the dissolution residue of the benzotriazole compound). In a case in which no residue remained on the filter, the solubility was determined as 5% by mass or more.
The solubility of the benzotriazole compound obtained in each Example and Comparative Example was measured by the following method.
as §1, with “Table 6” for “Table 1”

Decomposition temperature (Tg-5% by mass) [1]	gram absorption coefficient [2]	maximum absorption [2]	Solubility: PGMEA [3]	Solubility: EA [3]	Solubility: MEK [3]	Solubility: MMA [3]	Solubility: Toluene [3]	SMILES
335.1 °C	62000 mL/g/cm	364.5 nm	≤1 % by mass	≤1 % by mass	≤0.5 % by mass	≤0.5 % by mass	1.5≤ % by mass	Cc1cc(-n2nc3ccc(SCCOC(=O)c4cc(C(=O)OCCSc5ccc6nn(-c7cc(C)cc(C(C)(C)C)c7O)nc6c5)cc(C(=O)OCCSc5ccc6nn(-c7cc(C)cc(C(C)(C)C)c7O)nc6c5)c4)cc3n2)c(O)c(C(C)(C)C)c1 [Compound D3]
331.7 °C	59200 mL/g/cm	368.5 nm	≤1 % by mass	≤1 % by mass	≤1 % by mass	≤2 % by mass	3≤ % by mass	Cc1cc(-n2nc3ccc(SCCOCCOCCSc4ccc5nn(-c6cc(C)cc(C(C)(C)C)c6O)nc5c4)cc3n2)c(O)c(C(C)(C)C)c1 [Compound D1]
